This is an account of results in publication PMC12516686, “Design of 2‑Aminobenzothiazole Derivatives Targeting Trypanosomatid PTR1 by a Multidisciplinary Fragment Hybridization Approach” (Journal of Medicinal Chemistry, 2025).

Data set [1] addresses T1, TbPTR1 (Trypanosoma brucei brucei, UniProt O76290).
T1 sequence (O76290 1-268): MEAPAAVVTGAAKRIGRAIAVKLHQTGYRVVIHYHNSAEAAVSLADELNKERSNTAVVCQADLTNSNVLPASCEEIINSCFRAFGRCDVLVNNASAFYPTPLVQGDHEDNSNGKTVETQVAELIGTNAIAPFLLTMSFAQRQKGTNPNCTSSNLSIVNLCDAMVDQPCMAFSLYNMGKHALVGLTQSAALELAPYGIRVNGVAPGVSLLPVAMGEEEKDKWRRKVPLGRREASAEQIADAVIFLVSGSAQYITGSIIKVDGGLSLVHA
Put plainly: TbPTR1 kinetic direct enzyme assay (NADPH consumption). Conditions: direct method of activity measurement, duplicate. The data set is classed as biochemical. As to the method:
A direct kinetic assay was carried out to measure NADPH consumption over time using a Jasco V730 double-beam spectrophotometer. The assay was conducted as reported in ref . Thawed protein was incubated in 40 mM citrate buffer (pH 3.7) at a final concentration of 30 nM, along with the endogenous substrate at 27 μM. The reaction was carried out in a Kartell semimicro disposable polystyrene plastic cuvette (Kartell LABWARE, Milan, Italy). […] The maximum DMSO concentration was 2% in the assay solution. Each compound was tested in duplicate with a control assay without the inhibitor. The experiment was conducted 3 times. The reaction was initiated by adding NADP(H) to a final concentration of 134 μM in the cuvette, and the change in absorbance (ΔOD/min) at λ = 340 nm was monitored over 180 s at 25 °C with 27 μM. Six different concentrations were analyzed and fitted to a three-parameter logistical (3PL) model. A 95% confidence interval (CI) was used to calculate the standard error for each curve fitting, and a Student’s t test was performed for each duplicate with a significance threshold of p ≤ 0.05. Data fitting and statistical analysis were carried out using the GraphPad Prism Suite (2021).

Data set [2] deals with Trypanosoma brucei brucei L427 wild-type (WT) bloodstream forms. In words: Activity against T. brucei (resazurin-based assay). In kind it is cell-based. The settings on record: at 10 μM. As to the method: The parasites were grown in 5 mL T25 ventilated flasks containing complete HMI-9 medium. The medium was supplemented with 10% heat-inactivated FBS and 100 IU/mL penicillin/streptomycin. To maintain the cultures, subpassages were performed every 2 days at a concentration of 1 × 10^4 cells/mL.
The efficacy of the compounds against Trypanosoma brucei brucei L427 wild-type (WT) bloodstream forms was assessed using a resazurin-based assay as described elsewhere. T. b. brucei L427 bloodstream forms were prepared at a cell density of 5 × 10^3 cells/mL in supplemented complete medium. Serial dilutions of the test compounds were prepared in a final volume of 100 μL, and 100 μL of the parasite suspension was added to each well containing the compound dilutions, resulting in a total volume of 200 μL per well. A dose–response curve for pentamidine was included as a quality control in each assay, and each condition was tested in duplicate. The plates were incubated for 72 h under the specified conditions for the parasite. After the incubation period, 20 μL of a 0.5 mM resazurin solution was added to each well, and the plates were incubated for an additional 4 h under the same conditions. Fluorescence was measured at an excitation wavelength of 544 nm and an emission wavelength of 590 nm using a Synergy 2 Multi-Mode Reader (Biotek, Winooski, VT, USA). The results were expressed as the percentage of parasite growth inhibition compared to the control (untreated parasites) and represented the average of at least three independent experiments.
On the technique in general: Alamar Blue is a resazurin reagent that responds to reducing activity.

Data set [3] has as its system THP-1-derived macrophages. Put plainly: Cytotoxicity assay (MTT) on THP-1-derived macrophages. In kind it is cell-based, Human. The settings on record: cytotoxic concentration for THP1 cells. Here is the method:
Human leukemia cell line THP-1 (ATCC TIB202) cells were cultured in RPMI-1640 medium supplemented with 10% heat-inactivated fetal bovine serum (FBS), 2 mM L-glutamine, 100 IU/mL penicillin/streptomycin, and 20 mM HEPES. The cell line was maintained in a humidified incubator at 37 °C with 5% CO2. Subcultures were performed every 3 days in 20 mL of media at a concentration of 2 × 10^5 cells/mL in a T75 flask. All cell culture reagents were purchased from Lonza Bioscience (Morrisville, NC).
The cytotoxicity of the compounds on THP-1-derived macrophages was assessed using the colorimetric MTT assay (3-(4,5-dimethylthiazol-2-yl)-2,5-diphenyl tetrazolium bromide) as described elsewhere. THP-1 cells were suspended in RPMI complete medium at a density of 1 × 10^6 cells/mL, and 100 μL/well was seeded in a 96-well plate. The cells were differentiated into macrophages by adding 40 ng/mL of phorbol-myristate 13-acetate (PMA, Sigma, Saint Louis, MI, USA) for 24 h, followed by replacement with fresh medium for another 24 h. Subsequently, the cells were incubated with 100 μL of compounds, ranging from 100 to 12.5 μM, diluted in RPMI complete medium. Each condition was tested in triplicate. After 72 h of incubation at 37 °C with 5% CO2, the medium was removed, and 200 μL of 0.5 mg/mL MTT solution diluted in RPMI was added. The plates were incubated for an additional 4 h, after which 160 μL of the media was removed and replaced with 160 μL of 2-propanol. Absorbance was read at 570 nm using a Synergy 2 Multi-Mode Reader (Biotek, Winooski, VT, USA). Cytotoxicity was evaluated by presenting the CC50 (the concentration of the drug that reduces cell viability by 50%) interval or by determining the CC50 value through nonlinear regression analysis using GraphPad Prism version 8.1.1 for Windows (GraphPad Software, San Diego, CA, USA). Results represent the average of at least three independent experiments.

Data set [4] addresses T1, TbPTR1. Details: method as in PMID 30908048. Conditions: cited from earlier work; for IC50: reference compounds, SD within ± 10% ref 22; for TbPTR1 % enzyme inhibition: at 50 μM ref 22.
Data set [5] deals with Trypanosoma brucei brucei L427 wild-type (WT) bloodstream forms. Also noted: method as in PMID 30908048. The settings on record: cited from earlier work; for T. brucei % cell growth inhibition: at 10 μM ref 22; for EC50: read-out: T. brucei EC50.
Data set [6] deals with THP-1-derived macrophages. Also noted: method as in PMID 30908048. The settings on record: cytotoxic concentration for THP1 cells ref 22; cited from earlier work.
In another data set the target is T2, LmPTR1 (Leishmania major, UniProt Q01782).
T2 sequence (Q01782 1-288): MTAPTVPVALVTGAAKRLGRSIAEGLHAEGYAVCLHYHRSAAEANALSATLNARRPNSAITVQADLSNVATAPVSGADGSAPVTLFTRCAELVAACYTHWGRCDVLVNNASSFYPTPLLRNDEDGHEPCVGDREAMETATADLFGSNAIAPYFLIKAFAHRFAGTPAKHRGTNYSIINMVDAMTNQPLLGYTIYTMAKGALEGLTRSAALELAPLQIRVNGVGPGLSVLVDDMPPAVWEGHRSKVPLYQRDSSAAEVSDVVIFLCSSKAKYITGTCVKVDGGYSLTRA
Details: method as in PMID 30908048. The settings on record: at 50 μM ref 22; cited from earlier work.

Data set [7] concerns L. infantum intracellular amastigotes. Also noted: method as in PMID 30908048. Conditions: at 10 μM; intracellular amastigotes ref 22; cited from earlier work.
Data set [8] concerns the molecule itself. Put plainly: crystal structure; hanging-drop vapour diffusion, crystals soaked with inhibitors; space group P2(1), asymmetric unit holds a functional TbPTR1 tetramer; ternary complexes with NADP(H) and 1a, 2b, 2c, 2d or 2e.

Read-outs that look alike come from different tables or passages of the source.

On TbPTR1 [1], “2-amino-N-(3-(trifluoromethyl)phenethyl)benzo[d]thiazole-6-carboxamide [Compound 2g]” had an IC50 of 7 µM. For the same molecule, the “T. brucei % cell growth inhibition” value in data set [2] stood at 31±7%. Also, the CC50 in data set [3] is over 100 µM.

Regarding “2-amino-N-(4-(trifluoromethyl)phenethyl)benzo[d]thiazole-6-carboxamide [Compound 2f]”, at TbPTR1 [1], half-maximal inhibition (IC50) was put at 5.7 µM. In data set [3], the CC50 is over 100 µM.

Consider `Nc1nc2ccc(SCc3ccc(Cl)c(Cl)c3)cc2s1` [III], for which the IC50 at TbPTR1 [4] was 0.9 µM. Besides, in [5], the “T. brucei % cell growth inhibition” value was 46±1%.

Take `Nc1nc2ccc(OCc3ccc(Cl)c(Cl)c3)cc2s1` [II]: the IC50 at TbPTR1 [4] is 3.4 µM. Besides, the CC50 in data set [6] was over 100 µM. Besides, in [5], the “T. brucei % cell growth inhibition” value is given as 42±11%.

As to `Nc1nc2ccc(S(=O)(=O)Cc3ccc(Cl)c(Cl)c3)cc2s1` [IV], the “LmPTR1 % enzyme inhibition” value on LmPTR1 is listed as 26.9±1.8%. The “TbPTR1 % enzyme inhibition” value at TbPTR1 [4] is 16.7±8.4%. Moreover, the “T. brucei % cell growth inhibition” value in [5] was 37±11%. In data set [7], the “L. infantum % cell growth inhibition” value is given as 21±5%.

As for `Nc1nc2c(O)cc(C(=O)NCc3ccc(Cl)c(Cl)c3)cc2s1` [VII], the “LmPTR1 % enzyme inhibition” value at LmPTR1 is listed as 8.7±0.6%. Besides, the “TbPTR1 % enzyme inhibition” value at TbPTR1 [4] is reported as 11.8±4.6%. The EC50 in data set [5] is 5.9 µM. The “L. infantum % cell growth inhibition” value in [7] is 24±15%.

As for `COc1ccc(CN(Cc2ccc(Cl)c(Cl)c2)C(=O)c2ccc3nc(N)sc3c2)cc1OC` [VI], on TbPTR1 [4], the IC50 was 15.9 µM. Moreover, in [5], the EC50 is 9.7 µM.

Regarding `Nc1nc2ccc(C(=O)NCc3ccc(Cl)c(Cl)c3)cc2s1` [V], the half-inhibitory concentration (IC50) at TbPTR1 [4] is 5.4 µM.

B1: Trypanosoma brucei pteridine reductase 1 (enzyme)
chain: MEAPAAVVTGAAKRIGRAIAVKLHQTGYRVVIHYHNSAEAAVSLADELNKERSNTAVVCQADLTNSNVLPASCEEIINSCFRAFGRCDVLVNNASAFYPTPLVQGDHEDNSNGKTVETQVAELIGTNAIAPFLLTMSFAQRQKGTNPNCTSSNLSIVNLCDAMVDQPCMAFSLYNMGKHALVGLTQSAALELAPYGIRVNGVAPGVSLLPVAMGEEEKDKWRRKVPLGRREASAEQIADAVIFLVSGSAQYITGSIIKVDGGLSLVHA
modifications: Cys168 oxidized to S-oxycysteine (Csx168) in the crystal structures
notes: Pteridine reductase 1 (PTR1) of Trypanosoma brucei; Ala268 is called the C-terminus; also called TbPTR1; PTR1; source: E. coli BL21(DE3), purified (IMAC on HisTrap FF, SEC on Superdex 200)
Regarding B1, the “stoichiometry N” value in [8] came out at 4.

The IC50 is the midpoint of a concentration-inhibition curve. The term CC50 denotes the concentration at which the toxic effect on the cells reaches its halfway point. The EC50 is the midpoint of the concentration-response curve. In general, stoichiometry N refers to the number of molecules, sites or subunits per partner or assembly.
